“Also recorded” adds a separate entry of the source.
Legend:
NKG2D-Fc = target: T1, NKG2D-Fc (Homo sapiens, UniProt P26718); test: Size-exclusion chromatography co-elution with NKG2D-Fc; assay type: binding
T1 construct: the extracellular domain of NKG2D was fused with an IgG Fc fragment; made in house; host or cells: CHO cells
T1 sequence (P26718 73-216 limits assumed): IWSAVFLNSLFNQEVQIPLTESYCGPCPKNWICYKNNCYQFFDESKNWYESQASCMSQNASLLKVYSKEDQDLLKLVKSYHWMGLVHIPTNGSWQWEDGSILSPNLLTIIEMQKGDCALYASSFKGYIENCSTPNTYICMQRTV

NK-92 cells = test: In vitro interferon-gamma release assay on NK-92 cells; assay type: cell-based, human; conditions: serial dilution from 7.5 µM, 24 h
Procedure: plate (20 µL/well). Test compounds (300 nM, in 175 µL of FACS buffer) were added to the wells containing the beads. Plates were further incubated in the dark at room temperature for 1 hour and subsequently centrifuged at 2’500 rpm at 4 °C for 3 min. Beads were washed and resuspended in FACS buffer (200 µL). Data were acquired halting the measurement at 10’000 events on a Cytoflex S flow cytometer (Beckman Coulter) and analyzed using the FlowJo software v10 (BD Biosciences).
2.19 In vitro interferon-gamma release assay
Compounds 26 and 30 were tested for their ability to induce interferon-gamma (IFN-γ) release upon incubation with NK-cells. NK-92 cells were initially starved for 4 h in plain RPMI medium. […] After 24 h, cell-free supernatants were collected, and the concentration of IFN-γ was measured using the ELISA MAXTM Set Human IFN-γ kit (BioLegend). […]
The sections were blocked with 20% FCS (Invitrogen) and 3% BSA in PBS (pH 7.4) for 30 min and washed three times with PBS (pH 7.4). […] Images were recorded on a CR-35 Bio scanner and processed with the AIDA image analysis […]
2.21 Quantitative in vivo biodistribution studies […]
Figure S39. […] After 24 hours of incubation, IFN-γ levels in the culture supernatant were measured by ELISA. […]

co-elution with NKG2D-Fc in size-exclusion chromatography (NKG2D-Fc): kinetically stable complex
SMILES: CC(C)Oc1ccc(-c2cccc(C[C@H](NC(=O)c3ccccc3-c3ccc(C(F)(F)F)cc3)C(=O)N[C@@H](CCCCNC(=S)Nc3ccc4c(c3)C(=O)OC43c4ccc(O)cc4Oc4cc(O)ccc43)C(=O)O)c2)c(F)c1 [compound 30]
IFN-γ release by NK-92 cells (NK-92 cells): did not induce IFN-γ release; also recorded: not found to induce the release

From paper PMC12463120, “Phenylalanine‐Based DNA‐Encoded Chemical Libraries for the Discovery of Potent and Selective Small Organic Ligands Against Markers of Cancer and Immune Cells” (Advanced Science, 2025)
